Patent US20070232698A1, “Slimming Skin External Preparation and Cosmetic Containing the Same” (priority 2004, published 2007)
Where a name gives a salt, the structure may show the parent alone.

System: Mouse 3T3-F442A cells
Assay: Triglyceride accumulation in adipocytes with base acylcarnitine plus test substance (oil red staining)
Assay type: cell-based
Conditions: base hexadecanoyl-L-carnitine hydrochloride plus 50 μM test substance (ginkgo biloba extract 30 μg/ml; garcinia extract as hydroxycitric acid), 4 days; control = base alone
Description: The incubation was continued for another 4 days. The control was incubated using a culture medium that contained the base alone (no test substances). After the 4-days incubation, the cells were washed three times with Dulbecco's PBS (−). The triglyceride amount accumulated in the cells was quantitatively determined by oil red staining. […] Mouse 3T3-F442A cells were incubated as described in Example 10, and differentiation into adipocytes was observed. […] The incubation was continued for another 4 days. The control was incubated using a culture medium that contained the base alone (no test substances). After the 4-days incubation, the cells were washed three times with Dulbecco's PBS (−). The triglyceride amount accumulated in the cells was quantitatively determined by oil red staining.

In order of rising “accumulated triglyceride amount relative to the control (100%), Base Hexadecanoyl-L-carnitine hydrochloride” value:
1. CC(C)Cn1c(=O)n(C)c(=O)c2[nH]cnc21 [3-Isobutyl-1-methylxanthine]  50%
2. CC(C)NCC(O)c1ccc(O)c(O)c1 (stereo not shown) [Isoproterenol hydrochloride]  60%
3. CCCCCCCCCCCCCCCC(=O)OC(CC(=O)O)(C(=O)O)C(O)C(=O)O (stereo not shown) [Hydroxycitric acid-2-palmitate]  70%
4. CCCCCCCCCCCCCCCC(=O)OC[C@H](O)[C@H]1OC(=O)C(OP(=O)([O-])[O-])=C1[O-].[Na+].[Na+].[Na+] [Ascorbic acid-2-phosphoric acid-6-palmitate sodium salt]  96%
5. Cc1c(C)c2c(c(C)c1OC(=O)CN(C)C)CCC(C)(CCCC(C)CCCC(C)CCCC(C)C)O2.Cl (racemic) [dl-α-Tocopherol-N,N-dimethylglycine ester hydrochloride]  98%
6. O=C1O[C@H]([C@@H](O)CO)C(O)=C1OP(=O)([O-])[O-].[Mg+2] [Ascorbic acid-2-phosphate magnesium salt]  98%
7. C[N+](C)(C)C[C@H](O)CC(=O)[O-].Cl [L-carnitine hydrochloride]  99%
8. CCCCCCCCCCCCCC(=O)O [Myristic acid]  99%
9. Cc1c(C)c2c(c(C)c1OP(=O)([O-])[O-])CCC(C)(CCCC(C)CCCC(C)CCCC(C)C)O2.[Na+].[Na+] (racemic) [dl-α-Tocopherol phosphate sodium salt]  100%
10. CCCCCCCCCCCCCCCC(=O)O [Palmitic acid]  102%
11. OCC(O)CO [Glycerol]  118%

Same assay, conditions: base octadecanoyl-L-carnitine hydrochloride plus 50 μM test substance (ginkgo biloba extract 30 μg/ml; garcinia extract as hydroxycitric acid), 4 days; control = base alone

In order of rising “accumulated triglyceride amount relative to the control (100%), Base Octadecanoyl-L-carnitine hydrochloride” value:
1. CC(C)Cn1c(=O)n(C)c(=O)c2[nH]cnc21 [3-Isobutyl-1-methylxanthine]  57%
2. CC(C)NCC(O)c1ccc(O)c(O)c1 (stereo not shown) [Isoproterenol hydrochloride]  64%
3. CCCCCCCCCCCCCCCC(=O)OC(CC(=O)O)(C(=O)O)C(O)C(=O)O (stereo not shown) [Hydroxycitric acid-2-palmitate]  72%
4. CCCCCCCCCCCCCCCC(=O)OC[C@H](O)[C@H]1OC(=O)C(OP(=O)([O-])[O-])=C1[O-].[Na+].[Na+].[Na+] [Ascorbic acid-2-phosphoric acid-6-palmitate sodium salt]  96%
5. O=C1O[C@H]([C@@H](O)CO)C(O)=C1OP(=O)([O-])[O-].[Mg+2] [Ascorbic acid-2-phosphate magnesium salt]  97%
6. CCCCCCCCCCCCCC(=O)O [Myristic acid]  98%
7. Cc1c(C)c2c(c(C)c1OC(=O)CN(C)C)CCC(C)(CCCC(C)CCCC(C)CCCC(C)C)O2.Cl (racemic) [dl-α-Tocopherol-N,N-dimethylglycine ester hydrochloride]  99%
8. CCCCCCCCCCCCCCCC(=O)O [Palmitic acid]  100%
9. Cc1c(C)c2c(c(C)c1OP(=O)([O-])[O-])CCC(C)(CCCC(C)CCCC(C)CCCC(C)C)O2.[Na+].[Na+] (racemic) [dl-α-Tocopherol phosphate sodium salt]  102%
10. C[N+](C)(C)C[C@H](O)CC(=O)[O-].Cl [L-carnitine hydrochloride]  102%
11. OCC(O)CO [Glycerol]  113%
